One data set relates to MV4-11 cells. Briefly: MV4-11 Cell Cytotoxicity Assay (CellTiter-Blue, 72 h). The class given is cell-based, human. To be noted: Homo sapiens, MV4-11; MV-4-11 cells. Summed up:
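Cells seeded 24 h before treatment, then exposed 72 h at 37° C, 5% CO2 to inhibitors in triplicate, top concentration 50 μM with 1:2 serial dilutions (0.5% DMSO vehicle). Viability read by CellTiter-Blue fluorescence at 560/590 nm after 1 h.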

A further data set relates to glutathione (GSH). The data set is described as follows: Reactivity Profiling with Glutathione (GSH), half-life by HPLC. To be noted: 5 mM glutathione (GSH) in IMDM with 10% FBS.

IC50 and half-life data for 21 molecules are collected here from patent US20230159445A1, “STAT INHIBITORY COMPOUNDS AND COMPOSITIONS” (JANPIX LIMITED, priority 2020, published 2023).

`C[C@@H](CC(=O)N(Cc1cc(C2CC2)cc(C(C)(C)C)c1)c1ccc(C(=O)O)c(O)c1)N(Cc1ccc(Cl)cc1)S(=O)(=O)c1c(F)c(F)c(F)c(F)c1F` [Compound 1040, (S)-4-(N-(3-(tert-butyl)-5-cyclopropylbenzyl)-3-(N-(4-chlorobenzyl)-(2,3,4,5,6-pentafluorophenyl)sulfon-amido)butanamido)-2-hydroxybenzoic acid] yielded an IC50 in the data set on MV4-11 cells of 3160 to 100000 nM. The half-life at 25 μM with glutathione (GSH) was in the range of 4.12 to 9.23 h.

In the data set with MV4-11 cells, `CC(C)(C)c1cc(CN(C(=O)CN(Cc2ccccc2C(F)(F)F)S(=O)(=O)c2c(F)c(F)c(F)c(F)c2F)c2ccc(C(=O)O)c(O)c2)cc(C2CC2)c1` [Compound 1048, 4-(N-(3-(tert-butyl)-5-cyclopropylbenzyl)-2-(N-(2-(trifluoromethyl)benzyl)-(2,3,4,5,6-pentafluoro-phenyl)sulfonamido)acetamido)-2-hydroxybenzoic acid] came in with an IC50 of 1000 to 3160 nM. The molecule further yielded a half-life at 25 μM with glutathione (GSH) of 9.23 to 1670 h.

In the data set with MV4-11 cells, `CC(C)(C)c1cc(CN(C(=O)CN(Cc2ccc(Cl)cc2)S(=O)(=O)c2c(F)c(F)c(F)c(F)c2F)c2ccc(C(=O)O)cc2OC(F)(F)F)cc(C2CC2)c1` [Compound 1050, 4-(N-(3-(tert-butyl)-5-cyclopropylbenzyl)-2-(N-(4-chlorobenzyl)-(2,3,4,5,6-pentafluorophenyl)sulfon-amido)acetamido)-3-(trifluoromethoxy) benzoic acid] registered an IC50 of 1000 to 3160 nM. The same molecule had a half-life at 25 μM with glutathione (GSH) of 9.23 to 1670 h.

In the data set on MV4-11 cells, `CC(C)(C)c1cc(CN(C(=O)CCN(Cc2ccc(Cl)cc2)S(=O)(=O)c2c(F)c(F)c(F)c(F)c2F)c2ccc(C(=O)O)c(O)c2)cc(C2CC2)c1` [Compound 1052, 4-(N-(3-(tert-butyl)-5-cyclopropylbenzyl)-3-(N-(4-chlorobenzyl)-(2,3,4,5,6-pentafluorophenyl)sulfon-amido)propanamido)-2-hydroxybenzoic acid] displayed an IC50 of 3160 to 100000 nM. In the data set with glutathione (GSH), this molecule yielded a half-life at 25 μM of 2.37 to 4.12 h.

On to `O=C(O)c1ccc(N(Cc2cc(Br)cc(C3CC3)c2)C(=O)CN(Cc2ccc(Cl)cc2)S(=O)(=O)c2c(F)c(F)c(F)c(F)c2F)cc1O` [Compound 1054, 4-(N-(3-bromo-5-cyclopropylbenzyl)-2-(N-(4-chlorobenzyl)-(2,3,4,5,6-pentafluorophenyl)sulfon-amido)acetamido)-2-hydroxybenzoic acid], for which the IC50 with MV4-11 cells was 3160 to 100000 nM. The half-life at 25 μM in the data set with glutathione (GSH) lay within 0.00167 to 2.37 h.

In turn, `CC(C)(C)c1cc(CN(C(=O)CN(Cc2ccc(Cl)cc2)S(=O)(=O)c2c(F)c(F)c(F)c(F)c2F)c2ccc(S(N)(=O)=O)cc2)cc(C2CC2)c1` [Compound 1055, N-(3-(tert-butyl)-5-cyclopropylbenzyl)-2-(N-(4-chlorobenzyl)-(2,3,4,5,6-pentafluorophenyl)sulfon-amido)-N-(4-sulfamoylphenyl) acetamide] yielded an IC50 with MV4-11 cells of 1000 to 3160 nM. The half-life at 25 μM in the data set with glutathione (GSH) lay in the range of 9.23 to 1670 h.

`Cc1cc(C(=O)O)ccc1N(Cc1cc(C2CC2)cc(C(C)(C)C)c1)C(=O)CN(Cc1ccc(Cl)cc1)S(=O)(=O)c1c(F)c(F)c(F)c(F)c1F` [Compound 1056, 4-(N-(3-(tert-butyl)-5-cyclopropylbenzyl)-2-(N-(4-chlorobenzyl)-(2,3,4,5,6-pentafluorophenyl)sulfon-amido)acetamido)-3-methylbenzoic acid] came in with an IC50 in the data set on MV4-11 cells of 316 to 1000 nM. The same molecule returned a half-life at 25 μM in the data set on glutathione (GSH) of 4.12 to 9.23 h.

On to `CC(C)(C)c1cc(CN(C(=O)CN(Cc2ccccc2F)S(=O)(=O)c2c(F)c(F)c(F)c(F)c2F)c2ccc(C(=O)O)cc2N2CCC2)cc(C2CC2)c1` [Compound 1058, 3-(azetidin-1-yl)-4-(N-(3-(tert-butyl)-5-cyclopropylbenzyl)-2-(N-(2-fluorobenzyl)-(2,3,4,5,6-pentafluoro-phenyl)sulfonamido)acetamido)benzoic acid], for which the IC50 in the data set on MV4-11 cells fell in the range of 316 to 1000 nM. The molecule further gave a half-life at 25 μM with glutathione (GSH) of 9.23 to 1670 h.

In turn, `CN(C)c1cc(C(=O)O)c(F)cc1N(Cc1cc(C2CC2)cc(C(C)(C)C)c1)C(=O)CN(Cc1ccccc1F)S(=O)(=O)c1c(F)c(F)c(F)c(F)c1F` [Compound 1060, 4-(N-(3-(tert-butyl)-5-cyclopropylbenzyl)-2-(N-(2-fluorobenzyl)-(2,3,4,5,6-pentafluoro-phenyl)sulfonamido)acetamido)-5-(dimethylamino)-2-fluorobenzoic acid] had an IC50 in the data set on MV4-11 cells of 0.01 to 316 nM. The molecule further had a half-life at 25 μM in the data set with glutathione (GSH) of 4.12 to 9.23 h.

As for `CN(c1cc(C(=O)O)ccc1N(Cc1cc(C2CC2)cc(C(C)(C)C)c1)C(=O)CN(Cc1ccccc1F)S(=O)(=O)c1c(F)c(F)c(F)c(F)c1F)S(C)(=O)=O` [Compound 1064, 4-(N-(3-(tert-butyl)-5-cyclopropylbenzyl)-2-(N-(2-fluorobenzyl)-(2,3,4,5,6-pentafluoro-phenyl)sulfonamido)acetamido)-3-(N-methylmethylsulfonamido) benzoic acid], the half-maximal inhibitory concentration (IC50) with MV4-11 cells was 1000 to 3160 nM. In addition, in the data set on glutathione (GSH), the half-life at 25 μM fell in the range of 4.12 to 9.23 h.

In the case of `CC(C)(C)c1cc(CN(C(=O)CN(Cc2ccccc2F)S(=O)(=O)c2c(F)c(F)c(F)c(F)c2F)c2ccc(C(=O)O)cc2F)cc(C2CC2)c1` [Compound 1065, 4-(N-(3-(tert-butyl)-5-cyclopropylbenzyl)-2-(N-(2-fluorobenzyl)-(2,3,4,5,6-pentafluoro-phenyl)sulfonamido)acetamido)-3-fluorobenzoic acid], the IC50 in the data set on MV4-11 cells fell in the range of 316 to 1000 nM. In addition, the half-life at 25 μM in the data set with glutathione (GSH) was in the range of 0.00167 to 2.37 h.

For the molecule `CC(C)(C)c1cc(CN(C(=O)CN(Cc2ccccc2F)S(=O)(=O)c2c(F)c(F)c(F)c(F)c2F)c2ccc(C(=O)O)c(N)c2)cc(C2CC2)c1` [Compound 1070, 2-amino-4-(N-(3-(tert-butyl)-5-cyclopropylbenzyl)-2-(N-(2-fluorobenzyl)-(2,3,4,5,6-pentafluoro-phenyl)sulfonamido)acetamido)benzoic acid], the IC50 in the data set with MV4-11 cells was 316 to 1000 nM. Also, in the data set with glutathione (GSH), the half-life at 25 μM is 0.00167 to 2.37 h.

Take `CN(C)c1cc(N(Cc2cc(C3CC3)cc(C(C)(C)C)c2)C(=O)CN(Cc2ccccc2F)S(=O)(=O)c2c(F)c(F)c(F)c(F)c2F)ccc1C(=O)O` [Compound 1071, 4-(N-(3-(tert-butyl)-5-cyclopropylbenzyl)-2-(N-(2-fluorobenzyl)-(2,3,4,5,6-pentafluoro-phenyl)sulfonamido)acetamido)-2-(dimethylamino) benzoic acid]: in the data set with MV4-11 cells, the IC50 fell in the range of 316 to 1000 nM. This molecule also displayed a half-life at 25 μM in the data set on glutathione (GSH) of 2.37 to 4.12 h.

In the data set with MV4-11 cells, `Cc1cc(C(=O)O)cc(C)c1N(Cc1cc(C2CC2)cc(C(C)(C)C)c1)C(=O)CN(Cc1ccccc1F)S(=O)(=O)c1c(F)c(F)c(F)c(F)c1F` [Compound 1072, 4-(N-(3-(tert-butyl)-5-cyclopropylbenzyl)-2-(N-(2-fluorobenzyl)-(2,3,4,5,6-pentafluoro-phenyl)sulfonamido)acetamido)-3,5-dimethylbenzoic acid] came in with an IC50 of 316 to 1000 nM. In addition, the half-life at 25 μM in the data set on glutathione (GSH) is 4.12 to 9.23 h.

As for `COc1cc(C(=O)O)ccc1N(Cc1cc(C2CC2)cc(C(C)(C)C)c1)C(=O)C[C@@H](C)N(Cc1ccccc1F)S(=O)(=O)c1c(F)c(F)c(F)c(F)c1F` [Compound 1073], the IC50 with MV4-11 cells was in the range of 316 to 1000 nM. The half-life at 25 μM in the data set with glutathione (GSH) lay within 0.00167 to 2.37 h.

Regarding `COc1cc(C(=O)O)ccc1N(Cc1cc(C2CC2)cc(C(C)(C)C)c1)C(=O)CN(Cc1ccc(F)cc1F)S(=O)(=O)c1c(F)c(F)c(F)c(F)c1F` [Compound 1076, 4-(N-(3-(tert-butyl)-5-cyclopropylbenzyl)-2-(N-(2,4-difluorobenzyl)-(2,3,4,5,6-pentafluorophenyl)sulfon-amido)acetamido)-3-methoxybenzoic acid], in the data set on MV4-11 cells, the IC50 is 316 to 1000 nM. In the data set on glutathione (GSH), the half-life at 25 μM was 2.37 to 4.12 h.

In the data set on MV4-11 cells, `COc1cc(F)ccc1CN(CC(=O)N(Cc1cc(C2CC2)cc(C(C)(C)C)c1)c1ccc(C(=O)O)cc1OC)S(=O)(=O)c1c(F)c(F)c(F)c(F)c1F` [Compound 1077, 4-(N-(3-(tert-butyl)-5-cyclopropylbenzyl)-2-(N-(4-fluoro-2-methoxybenzyl)-(2,3,4,5,6-pentafluoro-phenyl)sulfonamido)acetamido)-3-methoxybenzoic acid] gave an IC50 of 316 to 1000 nM. Also, the half-life at 25 μM in the data set with glutathione (GSH) was in the range of 2.37 to 4.12 h.

Turning to `COc1cc(C(=O)O)ccc1N(Cc1cc(C2CC2)cc(C(C)(C)C)c1)C(=O)CN(Cc1c(Cl)cc(F)cc1Cl)S(=O)(=O)c1c(F)c(F)c(F)c(F)c1F` [Compound 1079, 4-(N-(3-(tert-butyl)-5-cyclopropylbenzyl)-2-(N-(2,6-dichloro-4-fluorobenzyl)-(2,3,4,5,6-pentafluorophenyl)sulfon-amido)acetamido)-3-methoxybenzoic acid], in the data set with MV4-11 cells, the IC50 fell in the range of 0.01 to 316 nM. Moreover, in the data set with glutathione (GSH), the half-life at 25 μM lay within 4.12 to 9.23 h.

As to `COc1cc(C(=O)O)ccc1N(Cc1cc(C2CC2)cc(C(C)(C)C)c1)C(=O)CN(Cc1cccc(F)c1F)S(=O)(=O)c1c(F)c(F)c(F)c(F)c1F` [Compound 1080, 4-(N-(3-(tert-butyl)-5-cyclopropylbenzyl)-2-(N-(2,3-difluorobenzyl)-(2,3,4,5,6-pentafluorophenyl)sulfonamido)acetamido)-3-methoxybenzoic acid], in the data set with MV4-11 cells, the IC50 was in the range of 0.01 to 316 nM. In addition, in the data set with glutathione (GSH), the half-life at 25 μM fell in the range of 2.37 to 4.12 h.

`COc1cc(C(=O)O)ccc1N(Cc1cc(C2CC2)cc(C(C)(C)C)c1)C(=O)CN(Cc1c(F)c(F)cc(F)c1F)S(=O)(=O)c1c(F)c(F)c(F)c(F)c1F` [Compound 1082, 4-(N-(3-(tert-butyl)-5-cyclopropylbenzyl)-2-(N-(2,3,5,6-tetrafluorobenzyl)-(2,3,4,5,6-pentafluoro-phenyl)sulfonamido)acetamido)-3-methoxybenzoic acid] had an IC50 with MV4-11 cells of 0.01 to 316 nM. In the data set with glutathione (GSH), this molecule yielded a half-life at 25 μM of 2.37 to 4.12 h.

For `COc1cc(C(=O)O)ccc1N(Cc1cc(C2CC2)cc(C(C)(C)C)c1)C(=O)CN(Cc1ccc(F)c(F)c1F)S(=O)(=O)c1c(F)c(F)c(F)c(F)c1F` [Compound 1083, 4-(N-(3-(tert-butyl)-5-cyclopropylbenzyl)-2-(N-(2,3,4-trifluorobenzyl)-(2,3,4,5,6-pentafluoro-phenyl)sulfonamido)acetamido)-3-methoxybenzoic acid], the IC50 in the data set with MV4-11 cells was in the range of 0.01 to 316 nM. Besides, the half-life at 25 μM in the data set on glutathione (GSH) was in the range of 4.12 to 9.23 h.
